Measured values taken from patent US20240109905A1, “4-ALKOXY-6-OXO-PYRIDAZINE DERIVATIVES MODULATING NLRP3” (JANSSEN PHARMACEUTICA NV, priority 2021, published 2024).

Tests used:
[1] = system: IL-1β; assay: PBMC assay: IL-1β release after LPS stimulation; format: cell-based; conditions: PBMC; human PBMCs, 30 min compound, 100 ng/ml LPS for 6 hrs, MSD; read-out: IL1β AC50
Method: The activity of a compound according to the present invention can be assessed by in vitro methods.
(§1) Peripheral venous blood was collected from healthy individuals and human peripheral blood mononuclear cells (PBMCs) were isolated from blood by Ficoll-Histopaque (Sigma-Aldrich, A0561) density gradient centrifugation. After isolation, PBMCs were stored in liquid nitrogen for later use. Upon thawing, PBMC cell viability was determined in growth medium (RPMI media supplemented with 10% fetal bovine serum, 1% Pen-Strep and 1% L-glutamine). Compounds were spotted in a 1:3 serial dilution in DMSO and diluted to the final concentration in 30 μl medium in 96 well plates (Falcon, 353072). PBMCs were added at a density of 7.5×10^4 cells per well and incubated for 30 min in a 5% CO2 incubator at 37° C. LPS stimulation was performed by addition of 100 ng/ml LPS (final concentration, Invivogen, tlrl-smlps) for 6 hrs followed by collection of cellular supernatant and the analysis of IL-1β (μM) and TNF cytokines levels (μM) via MSD technology according to manufacturers' guidelines (MSD, K151A0H).
(§2) IC50 and AC50 values (for […]) and EC50 and AC50 values (TNF) were obtained on compounds of the invention/examples, and the AC50 values are depicted in the following table: […]

[2] = system: TNF; assay: PBMC assay: TNF cytokine level after LPS stimulation; format: cell-based; conditions: PBMC; human PBMCs, 30 min compound, 100 ng/ml LPS for 6 hrs, MSD
Method: as §1, §2

SMILES | AC50 [1] [nM] | AC50 [2] [µM]
CC(C)c1nn(CC(=O)Nc2ccc3nncn3n2)c(=O)c(Cl)c1OCC1CC1 [Compound 44, N-([1,2,4]triazolo[4,3-b]pyridazin-6-yl)-2-(5-chloro-4-(cyclopropylmethoxy)-3-isopropyl-6-oxopyridazin-1(6H)-yl)acetamide] | 70 | 3.53
CC(C)c1nn(CC(=O)Nc2ccc3nncn3c2)c(=O)cc1OCC1CN(C(=O)OC(C)(C)C)C1 [Compound 2F] | > 15000 | > 10
CCCS(=O)(=O)C12CC(NC(=O)Cn3nc(C(C)C)c(OCC(C)C)cc3=O)(C1)C2 [Compound 78, 2-(4-isobutoxy-3-isopropyl-6-oxopyridazin-1(6H)-yl)-N-(3-(propylsulfonyl)bicyclo[1.1.1]pentan-1-yl)acetamide] | 420 | > 20
CC(C)c1nn(CC(=O)Nc2ccc3nncn3c2)c(=O)c(Cl)c1OCC(C)(F)F [Compound 93] | 770 | 8.92
CC(C)COc1cc(=O)n(CC(=O)NC23C4C5C2C2C3C4C52C(=O)O)nc1C(C)C (stereo not drawn) [Compound 125] | 3410 | > 20
Cc1cnc(C23CC(NC(=O)Cn4nc(C(C)C)c(OCC(C)C)cc4=O)(C2)C3)o1 [Compound 139, 2-(4-isobutoxy-3-isopropyl-6-oxopyridazin-1(6H)-yl)-N-(3-(5-methyloxazol-2-yl)bicyclo[1.1.1]pentan-1-yl)acetamide] | 10800 | > 20
CC(C)c1nn(CC(=O)Nc2ccc3nncn3c2)c(=O)cc1OC1COC1 [Compound 13F] | > 15000 | > 10
CC(C)COc1cc(=O)n(CC(=O)Nc2cc3ncccn3n2)nc1C(C)C [Compound 103] | 1100 | > 20
CC(C)c1nn(CC(=O)Nc2ccc3nncn3n2)c(=O)c(Cl)c1OCC(F)(F)F [Compound 72] | 270 | 16.6
CC(C)COc1cc(=O)n(CC(=O)Nc2ccc3nccn3n2)nc1C(C)C [Compound 49] | 90 | > 20
CC(C)COc1cc(=O)n(CC(=O)Nc2nc3ncccc3o2)nc1C(C)C [Compound 140] | 11800 | > 20
CC(C)c1nn(CC(=O)Nc2ccc3nncn3n2)c(=O)cc1Oc1ccccc1 [Compound 143] | 18000 | > 20
CC(C)c1nn(CC(=O)Nc2ccc3nncn3c2)c(=O)cc1OCC(F)F [Compound 17F] | 690 | > 10
CC(C)c1nn(CC(=O)Nc2ccc3nncn3c2)c(=O)cc1OC1CCN(C(=O)OC(C)(C)C)C1 (stereo not drawn) [Compound 1F, tert-butyl 3-((1-(2-([1,2,4]triazolo[4,3-a]pyridin-6-ylamino)-2-oxoethyl)-3-isopropyl-6-oxo-1,6-dihydropyridazin-4-yl)oxy)pyrrolidine-1-carboxylate] | > 15000 | > 10
CC(C)COc1cc(=O)n(CC(=O)NC23CC(C(N)C(F)(F)F)(C2)C3)nc1C(C)C (stereo not drawn) [Compound 107] | 1310 | > 20
CC(C)COc1cc(=O)n(CC(=O)NC23CC(O)(C2)C3)nc1C(C)C [Compound 82] | 500 | > 20
CN(C)c1nn(CC(=O)Nc2ccc3nncn3c2)c(=O)cc1OCC(F)(F)F [Compound 106] | 1210 | > 20
CC(C)COc1cc(=O)n(CC(=O)NC23CCC(NC(=O)OC(C)(C)C)(C2)C3)nc1C(C)C [Compound 115] | 1880 | > 20
CC(C)COc1cc(=O)n(CC(=O)Nc2cn3cccnc3n2)nc1C(C)C [Compound 100] | 1000 | 4.81
CC(C)COc1cc(=O)n(CC(=O)Nc2nc3ccc(F)cn3n2)nc1C(C)C [Compound 69] | 250 | > 20
CC(C)COc1c(C(C)C)nn(CC(=O)Nc2ccc3nncn3c2)c(=O)c1Cl [Compound 60, N-([1,2,4]triazolo[4,3-a]pyridin-6-yl)-2-(5-chloro-4-isobutoxy-3-isopropyl-6-oxopyridazin-1(6H)-yl)acetamide] | 160 | > 20
Cc1c(OCC(C)C)c(C(C)C)nn(CC(=O)Nc2ccc3nncn3n2)c1=O [Compound 42] | 50 | 9.41
CC(C)COc1cc(=O)n(CC(=O)NC23CC(S(C)(=O)=O)(C2)C3)nc1C(C)C [Compound 101] | 1020 | > 20
CC(C)COc1cc(=O)n(CC(=O)Nc2nc3ccc(C(F)(F)F)cn3n2)nc1C(C)C [Compound 124] | 3400 | > 20
CC(C)c1nn(CC(=O)Nc2ccc3nncn3c2)c(=O)c(Cl)c1OCCC(F)(F)F [Compound 138] | 10700 | > 20
CC(C)COc1cc(=O)n(CC(=O)NC23CC(C(C)(C)O)(C2)C3)nc1C(C)C [Compound 85, N-(3-(2-hydroxypropan-2-yl)bicyclo[1.1.1]pentan-1-yl)-2-(4-isobutoxy-3-isopropyl-6-oxopyridazin-1(6H)-yl)acetamide] | 650 | > 20

SMILES | AC50 [1] [nM] | AC50 [2] [µM]
CCOc1cc(=O)n(CC(=O)Nc2ccc3nncn3c2)nc1C1CC1 [Compound 33D] | 1250 | > 10
CC(C)c1nn(CC(=O)Nc2ccc3nncn3c2)c(=O)cc1OCC1CCC1 [Compound 7F] | 210 | > 10
CC(C)COc1cc(=O)n(CC(=O)Nc2nc3ccc(C#N)cc3o2)nc1C(C)C [Compound 137] | 10200 | > 20
CC(C)COc1cc(=O)n(CC(=O)Nc2nc3ncccn3n2)nc1C(C)C [Compound 77] | 400 | > 20
CC(C)COc1cc(=O)n(CC(=O)Nc2ccc3nncn3n2)nc1C(C)C [Compound 41] | 40 | > 20
CC(C)COc1cc(=O)n(CC(=O)Nc2nc3ccccn3n2)nc1C(C)C [Compound 53] | 100 | > 20
O=C(Cn1nc(C2CC2)c(OCC23CC(CO2)C3)cc1=O)Nc1ccc2nncn2n1 [Compound 32E] | 14600 | > 10
CC(C)COc1cc(=O)n(CC(=O)NC23CC(C)(C2)C3)nc1C(C)C [Compound 92] | 710 | > 20
CN(C)c1nn(CC(=O)Nc2ccc3nncn3n2)c(=O)cc1OCC(F)(F)F [Compound 95] | 790 | 18.2
CC(C)Oc1cc(=O)n(CC(=O)Nc2ccc3nncn3c2)nc1C(C)C [Compound 18F] | 660 | > 10
CC(C)COc1cc(=O)n(CC(=O)Nc2nc3cc(Cl)ccc3o2)nc1C(C)C [Compound 141, N-(5-chlorobenzo[d]oxazol-2-yl)-2-(4-isobutoxy-3-isopropyl-6-oxopyridazin-1(6H)-yl)acetamide] | 12200 | > 20
CC(C)COc1cc(=O)n(CC(=O)N[C@H]2C[C@]3(CCN3C)C2)nc1C(C)C [Compound 89, 2-(4-isobutoxy-3-isopropyl-6-oxopyridazin-1(6H)-yl)-N-((4s,6r)-1-methyl-1-azaspiro[3.3]heptan-6-yl)acetamide] | 670 | > 20
CC(C)c1nn(CC(=O)Nc2ccc3nncn3c2)c(=O)cc1OCC1CC1 [Compound 22F] | 110 | > 10
CC(C)c1nn(CC(=O)Nc2ccc3nncn3c2)c(=O)cc1OCC1CC1(F)F (stereo not drawn) [Compound 21F] | 650 | > 10
CC(C)COc1cc(=O)n(CC(=O)Nc2cn3ccncc3n2)nc1C(C)C [Compound 97] | 950 | 5.01
CC(C)COc1cc(=O)n(CC(=O)NC23CC(CO)(C2)C3)nc1C(C)C [Compound 79] | 430 | > 20
CC(C)c1nn(CC(=O)Nc2ccc3nncn3c2)c(=O)cc1OCC1(C)COC1 [Compound 15F] | 2300 | > 10
CC(C)COc1cc(=O)n(CC(=O)NC23CCC(NC(=O)OC(C)(C)C)(CC2)CC3)nc1C(C)C [Compound 153] | > 20000 | > 20
CC(C)COc1cc(=O)n(CC(=O)NC23CCC(C(=O)O)(CC2)C3)nc1C(C)C [Compound 104] | 1120 | > 20
CC(C)COc1c(C(C)C)nn(CC(=O)Nc2ccc3nncn3n2)c(=O)c1Cl [Compound 39] | 20 | 0.6
CN(C)c1nn(CC(=O)Nc2ccc3nncn3n2)c(=O)cc1OCC1CC1 [Compound 76] | 370 | > 20
COc1cc(=O)n(CC(=O)Nc2ccc3nncn3n2)nc1C(C)C [Compound 27C, N-([1,2,4]triazolo[4,3-b]pyridazin-6-yl)-2-(3-isopropyl-4-methoxy-6-oxopyridazin-1(6H)-yl)acetamide] | 13300 | > 10
COC(=O)C12CC(NC(=O)Cn3nc(C(C)C)c(OCC(C)C)cc3=O)(C1)C2 [Compound 36, methyl 3-(2-(4-isobutoxy-3-isopropyl-6-oxopyridazin-1(6H)-yl)acetamido)bicyclo[1.1.1]pentane-1-carboxylate] | 10 | 3.81
CC(C)COc1cc(=O)n(CC(=O)NC23CC(N4CCOCC4)(C2)C3)nc1C(C)C [Compound 94] | 780 | > 20
CC(C)COc1cc(=O)n(CC(=O)Nc2cc3ccccn3n2)nc1C(C)C [Compound 113] | 1790 | > 20
